The source of these data is patent US12102644B2, “Compounds and methods of promoting myelination” (Case Western Reserve University, priority 2019, dated 2024).

Series [1] addresses T1, rat CYP51 (Rattus norvegicus, UniProt Q64654).
T1 sequence (Q64654 1-503): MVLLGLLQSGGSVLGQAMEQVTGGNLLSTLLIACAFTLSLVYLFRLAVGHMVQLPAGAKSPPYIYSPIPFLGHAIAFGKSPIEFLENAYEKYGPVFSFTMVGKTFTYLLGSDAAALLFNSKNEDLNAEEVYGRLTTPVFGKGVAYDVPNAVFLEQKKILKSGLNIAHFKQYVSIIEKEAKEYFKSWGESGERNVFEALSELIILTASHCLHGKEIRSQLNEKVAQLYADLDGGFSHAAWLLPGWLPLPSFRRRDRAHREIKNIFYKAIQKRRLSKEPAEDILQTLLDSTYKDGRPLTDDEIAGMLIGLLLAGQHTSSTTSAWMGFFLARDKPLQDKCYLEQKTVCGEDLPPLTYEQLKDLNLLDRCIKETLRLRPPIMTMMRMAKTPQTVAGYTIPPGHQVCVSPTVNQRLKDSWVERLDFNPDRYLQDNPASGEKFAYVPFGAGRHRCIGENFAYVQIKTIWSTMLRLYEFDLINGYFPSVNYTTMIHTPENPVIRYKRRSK
As to conditions: rat CYP51 enzymatic activity.

Series [2] has as its system mouse epiblast stem cell-derived OPCs. The series can be described thus: In vitro OPC differentiation assay (percentage of MBP+ oligodendrocytes, high-content imaging). The format is cell-based. Particulars: for formation of MBP+ oligodendrocytes in combination with ketoconazole: co-treatment with ketoconazole 2.5 μM. The procedure: To rigorously assess effects of small molecule and genetic treatments on OPCs, all treatments were assayed in two batches of epiblast stem cell-derived OPCs, and key results were confirmed using mouse primary OPCs. OPCs were generated from two separate EpiSC lines, EpiSC5 (giving rise to OPC-5 OPCs) and 12901 (giving rise to OPC-1 OPCs). EpiSC-derived OPCs were obtained using in vitro differentiation protocols and culture conditions described previously. To ensure uniformity throughout all in vitro screening experiments, EpiSC-derived OPCs were sorted to purity by fluorescence activated cell sorting at passage five with conjugated CD 140a-APC (eBioscience, 17-1401; 1:80) and NG2-AF488 (Millipore, AB[…]; 1:100) antibodies. Sorted batches of OPCs were expanded and frozen down in aliquots. OPCs were thawed into growth conditions for one passage before use in further assays. Cultures were regularly tested and shown to be mycoplasma free. EpiSC-derived OPCs were grown and expanded in poly-ornithine (PO) and laminin-coated flasks with growth medium (DMEM/F12 supplemented with N2-MAX (R&D Systems), B-27 (ThermoFisher), GlutaMax (Gibco), FGF2 ([…], R&D systems, 233-FB-025) and PDGF-AA ([…], R&D systems, 233-AA-050) before harvesting for plating. The cells were seeded onto poly-D-[…]-well CellCarrier plates (PerkinElmer) coated with laminin (Sigma, L2020; 15 μg/ml) using multi-channel pipet. For the experiment, 800,000 cells/mL stock in differentiation medium (DMEM/F12 supplemented with N2-MAX and B-27) was prepared and stored on ice for 2 h. Then, 40,000 cells were seeded per well in differentiation medium and allowed to attach for 30 min before addition of drug. For dose-response testing of all molecules except sterols, a 1000× compound stock in dimethyl sulphoxide (DMSO) was added to assay plates with 0.1 μL solid pin multi-blot replicators (V & P Scientific; VP 409), resulting in a final primary screening concentration of 1×. Sterols were added to cells as an ethanol solution (0.2% final ethanol concentration). Positive control wells (ketoconazole, 2.5 μM) and DMSO vehicle controls were included in each assay plate. Cells were incubated under standard conditions (37° C., 5% CO2) for 3 days and fixed with 4% paraformaldehyde (PFA) in phosphate buffered saline (PBS) for 20 min. Fixed plates were washed with PBS (200 μL per well) twice, permeabilized with 0.1% Triton X-100 and blocked with 10% donkey serum (v/v) in PBS for 40 min. Then, cells were labelled with MBP antibodies (Abcam, ab7349; 1:200) for 16 h at 4° C. followed by detection with Alexa Fluor conjugated secondary antibodies (1:500) for 45 min. Nuclei were visualized by DAPI staining (Sigma; 1 μg/ml). During washing steps, PBS was added using a multi-channel pipet and aspiration was performed using Biotek EL406 washer dispenser (Biotek) equipped with a 96-well aspiration manifold. Plates were imaged on the Operetta High Content Imaging and Analysis system (PerkinElmer) and a set of 6 fields captured from each well resulting in an average of 1200 cells being scored per well. Analysis (PerkinElmer Harmony and Columbus software) began by identifying intact nuclei stained by DAPI; that is, those traced nuclei that were larger than 300 μm^2 in surface area. Each traced nucleus region was then expanded by 50% and cross-referenced with the […] (MBP) stain to identify oligodendrocyte nuclei, and from this the percentage of oligodendrocytes was calculated. In some experiments, the total process length of MBP^+ oligodendrocytes was calculated as previously described.

The test system of series [3] is sterol levels in OPCs (cholesterol biosynthesis pathway). Kind of series: GC/MS-based sterol profiling in OPCs. The format is cell-based, mouse.
In the next series the target is T2, EBP (Mus musculus, UniProt P70245).
T2 construct: active EBP was obtained from mouse microsomes; from tissue
T2 sequence (P70245 1-230): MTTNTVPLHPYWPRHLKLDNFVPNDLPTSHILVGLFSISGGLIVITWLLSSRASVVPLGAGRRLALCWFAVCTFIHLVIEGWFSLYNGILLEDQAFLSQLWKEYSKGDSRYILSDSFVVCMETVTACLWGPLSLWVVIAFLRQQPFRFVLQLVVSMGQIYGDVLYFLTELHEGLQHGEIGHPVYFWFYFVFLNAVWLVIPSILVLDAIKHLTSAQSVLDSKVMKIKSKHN
Kind of series: EBP enzymatic assay (GC/MS). The format is biochemical. Particulars: small molecules 10 μM, zymostenol 25 μM, 2 h.

The target in series [4] is T1, rat CYP51. The series can be described thus: biochemical.
Setting [5] is: 72 h, differentiation-permissive conditions.

Entries after “also recorded” stand apart in the source; their conditions may differ. Like-named read-outs stand apart in the source and are kept apart here.

For the molecule `CC(=O)N1CCN(c2ccc(OC[C@@H]3CO[C@](Cn4ccnc4)(c4ccc(Cl)cc4Cl)O3)cc2)CC1` (stereo in doubt) [R-trans-Ketoconazole], at rat CYP51 [1], the “inhibition of mammalian CYP51 in vitro” value is reported as “strikingly less effective at inhibiting mammalian CYP51”.

Consider `CC(C)CCC[C@@H](C)[C@H]1CC[C@H]2C3=C(CC[C@]12C)[C@@]1(C)CC[C@H](O)CC1=CC3` [8,9-dehydrocholesterol], for which the “formation of MBP+ oligodendrocytes from OPCs” value (“formation … from OPCs” for short) in series [2] (setting [5]) is recorded as “robustly enhanced oligodendrocyte formation”.

Turning to `CC(C)CCC[C@@H](C)[C@H]1CC=C2C3=C(CC[C@@]21C)[C@@]1(C)CC[C@H](O)C[C@@H]1CC3` [14-dehydrozymostenol, cholesta-8,14-dien-j-ol], in series [2] (setting [5]), the “formation … from OPCs” value is “enhanced the formation of MBP^+ oligodendrocytes”.

With `Cc1cc(C)c(CNC(=O)c2cc(-c3ccc(CN4CCOCC4)cc3)cc3c2cnn3C2CCCC2)c(=O)[nH]1` [EPZ005687], the “formation … from OPCs” value in series [2] (setting [5]) is reported as “robustly enhanced oligodendrocyte formation”. For the same molecule, in series [3] (24 h treatment), the “accumulation of sterol intermediates in OPCs (enzyme inhibition in OPCs, e.g. EBP)” value is “uniquely caused accumulation of zymosterol and zymostenol in OPCs”. For the same molecule, the “inhibition of EBP enzymatic activity” value on EBP is on record as “directly inhibiting EBP enzymatic activity”.

On to `CC(C)=CCC[C@@H](C)[C@H]1CC=C2C3=C(CC[C@@]21C)[C@@]1(C)CC[C@H](O)C(C)(C)[C@@H]1CC3` [FF-MAS, 4,4-dimethyl-5α-cholesta-8,14,24-trien-3β-ol], for which the “formation … from OPCs” value in series [2] (setting [5]) is “enhanced oligodendrocyte formation; also recorded: maximally potent enhancers of oligodendrocyte formation among the 8,9-unsaturated sterols tested”.

With `CC(C)CCC[C@@H](C)[C@H]1CC=C2C3=C(CC[C@@]21C)[C@@]1(C)CC[C@H](O)C(C)(C)[C@@H]1CC3` [MAS-412], the “formation … from OPCs” value in series [2] (setting [5]) is “enhanced oligodendrocyte formation; also recorded: optimal efficacy and potency among all canonical cholesterol biosynthesis intermediates evaluated”.

As for `CC(C)CCC[C@@H](C)[C@H]1CC[C@H]2C3=C(CC[C@]12C)[C@@]1(C)CC[C@H](O)C(C)(C)[C@@H]1CC3` [MAS-414], the “formation … from OPCs” value in series [2] (setting [5]) was “enhanced oligodendrocyte formation; also recorded: optimal efficacy and potency among all canonical cholesterol biosynthesis intermediates evaluated”.

In the case of `C=CCN(C)CCCCCCOc1ccc(C(=O)c2ccc(Br)cc2)c(F)c1` [Ro 48-8071], the “formation … from OPCs” value in series [2] (setting [5]) was “little impact”. Besides, the “total cell number (DAPI+ nuclei)” value in series [2] (3 d differentiation assay) is “little impact”. The “formation of MBP+ oligodendrocytes in combination with ketoconazole” value (“formation … with ketoconazole” below) in series [2] (72 h) is reported as “completely suppressed ketoconazole's pro-myelinating effects”. The “reduction in lanosterol levels relative to ketoconazole alone” value in series [3] (co-treatment ketoconazole 2.5 μM + Ro 48-8071 11 nM, 24 h) came out at 90%.

Take `CC(C)=CCC[C@@H](C)[C@H]1CC[C@H]2C3=C(CC[C@]12C)[C@@]1(C)CC[C@H](O)C(C)(C)C1CC3` (stereo partly drawn) [T-MAS]: the “formation … from OPCs” value in series [2] (setting [5]) is “enhanced oligodendrocyte formation”.

`CN1[C@@H]2CC[C@H]1C[C@@H](OC(c1ccccc1)c1ccccc1)C2` [benztropine, Benztropine]: the “formation … with ketoconazole” value in series [2] (72 h) is “did not enhance differentiation above levels seen for ketoconazole alone”. Also, the “accumulation of sterol intermediates in OPCs (enzyme inhibition in OPCs, e.g. EBP)” value in series [3] (24 h treatment) is “induced accumulation of zymostenol and zymosterol and decreased basal sterol levels”. The “inhibition of EBP enzymatic activity” value against EBP is listed as “clear inhibition”.

For `C=C(c1ccc(C(=O)O)cc1)c1cc2c(cc1C)C(C)(C)CCC2(C)C` [bexarotene, Bexarotene], the “accumulation of sterol intermediates in OPCs (enzyme inhibition in OPCs, e.g. EBP)” value in series [3] (24 h treatment) is “minimal effects on sterol levels”.

Turning to `CC(C)CCC[C@@H](C)[C@H]1CC[C@H]2[C@@H]3CC=C4C[C@@H](O)CC[C@]4(C)[C@H]3CC[C@]12C` [cholesterol, Cholesterol], the “formation … from OPCs” value in series [2] (setting [5]) is on record as “ineffective; also recorded: had no effect on OPCs”.

Take `CN1CCC[C@@H]1CCO[C@](C)(c1ccccc1)c1ccc(Cl)cc1` [clemastine, Clemastine]: in series [2] (72 h), the “formation … with ketoconazole” value is reported as “did not enhance differentiation above levels seen for ketoconazole alone”.

As for `Clc1ccccc1C(c1ccccc1)(c1ccccc1)n1ccnc1` [clotrimazole, Clotrimazole], at rat CYP51 [4], the IC50 lay in the range of 300 to 700 nM.

As for `C[C@]12CC[C@@H]3c4ccc(O)cc4C[C@@H](CCCCCCCCC[S+]([O-])CCCC(F)(F)C(F)(F)F)[C@H]3[C@@H]1CC[C@@H]2O` (stereo partly drawn) [fulvestrant, Fulvestrant], the “sterol profile in OPCs at the screening dose (enzyme targeted)” value in series [3] (2 μM, 24 h) is given as “targeted CYP51”.

In the case of `OCCOCCN1CCN(C(c2ccccc2)c2ccc(Cl)cc2)CC1` (stereo not drawn) [hydroxyzine, Hydroxyzine], the “inhibition of EBP enzymatic activity” value against EBP is reported as “directly inhibiting EBP enzymatic activity”.

For `CC(C)=CCC[C@@H](C)[C@H]1CC[C@@]2(C)C3=C(CC[C@]12C)[C@@]1(C)CC[C@H](O)C(C)(C)[C@@H]1CC3` [lanosterol, Lanosterol], in series [2] (setting [5]), the “formation … from OPCs” value is given as “enhanced formation of MBP^+ oligodendrocytes in a dose-responsive fashion”.

Regarding `N[C@@H](Cc1cc(I)c(Oc2ccc(O)c(I)c2)c(I)c1)C(=O)O` [liothyronine, Liothyronine], in series [2] (liothyronine 3 μM combined with sterol-modulating treatments, 72 h), the “formation of oligodendrocytes in combination with liothyronine” value is given as “additive effects on oligodendrocyte formation”. For the same molecule, the “accumulation of sterol intermediates in OPCs (enzyme inhibition in OPCs, e.g. EBP)” value in series [3] is listed as “minimal effects on sterol levels”.

Take `OCCOc1ccc(/C(=C(/CCCl)c2ccccc2)c2ccccc2)cc1` [ospemifine, Ospemifene]: the “formation … from OPCs” value in series [2] was “had no effect on OPC differentiation”. For the same molecule, the “accumulation of sterol intermediates in OPCs (enzyme inhibition in OPCs, e.g. EBP)” value in series [3] was “did not inhibit EBP”.

With `CN(C)CCOc1ccc(/C(=C(/CCCl)c2ccccc2)c2ccccc2)cc1` [toremifene, Toremifene], the “formation … from OPCs” value in series [2] (setting [5]) is “enhanced MBP^+ oligodendrocyte generation over a wide dose range”. Also, in series [3] (24 h treatment), the “accumulation of sterol intermediates in OPCs (enzyme inhibition in OPCs, e.g. EBP)” value is “inhibited EBP”.

As to `CC(C)CCC[C@@H](C)[C@H]1CC[C@H]2C3=C(CC[C@]12C)[C@@]1(C)CC[C@H](O)C[C@@H]1CC3` [zymostenol, Zymostenol], the “formation … from OPCs” value in series [2] (setting [5]) was “enhanced the formation of MBP^+ oligodendrocytes; also recorded: enhanced oligodendrocyte formation”.

methyl-β-cyclodextrin: the “formation … from OPCs” value in series [2] (setting [5]) is on record as “had no effect on oligodendrocyte formation”. Further, in series [3] (methyl β-cyclodextrin 1 mM for 30 min), the “cholesterol levels in OPCs” value is “reductions in cholesterol levels comparable to pathway inhibitor treatment”.
